Measured values as given in the supplement of paper PMC9763283.

Legend:
Test in all cases: area under growth-rate inhibition curve (AUC GRI) (dimensionless (GR-based AUC)); higher = less growth inhibition
Conditions in all cases: exposure time: 72 h; concentrations: 0.1, 1, 10 uM
[1] = test system: SKBR3-P
Summary of the method: (§1)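 Nuclear counts from Hoechst 33342- or DAPI-stained images were used to estimate the area under the growth-rate inhibition curve, with growth corrected by reference to untreated and DMSO-treated plates and starting plates. The six breast cancer cell line models, comprising two triple-negative lines and parental and drug-combination-resistant HER2+ lines, were treated with compound at 0.1, 1 or 10 µM for 72 h. Data came from 2 biological replicates, using Day 0 and Day 3 plates.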

[2] = test system: SKBR3-LTR
Summary of the method: as §1

[3] = test system: BT474-LTR
Summary of the method: as §1

[4] = test system: MDA-MB-468
Summary of the method: as §1

[5] = test system: BT474-P
Summary of the method: as §1

[6] = test system: MDA-MB-231
Summary of the method: as §1

SMILES | area under growth-rate inhibition curve [1] | area under growth-rate inhibition curve [2] | area under growth-rate inhibition curve [3] | area under growth-rate inhibition curve [4] | area under growth-rate inhibition curve [5] | area under growth-rate inhibition curve [6]
CCC(c1cccc(O)c1)C(C)CN(C)C (stereo not drawn) [Tapentadol] | 1.01 | 1 | 1.01 | 1 | 1.01 | 0.986
COc1cc2nc(N3CCN(C(=O)C4CCCO4)CC3)nc(N)c2cc1OC.O.[Cl-].[H+] (stereo not drawn) [Terazosin HCl] | 1.03 | 1.1 | 1.09 | 1.04 | 1.02 | 1.02
COc1cc2nc(N3CCN(C(=O)C4CCCO4)CC3)nc(N)c2cc1OC.[Cl-].[H+] (stereo not drawn) [Terazosin] | 1.03 | 1.01 | 1.07 | 0.998 | 1.02 | 0.999
[Cl-].[H+].c1ccc2c(c1)CCCC2C1=NCCN1 (stereo not drawn) [Tetrahydrozoline HCl] | 1.02 | 1.02 | 1.07 | 1.03 | 1.03 | 1.01
CN1c2ccccc2C(NCCCCCCC(=O)[O-])c2ccc(Cl)cc2S1(=O)=O.[Na+] (stereo not drawn) [Tianeptine sodium] | 1.01 | 1.02 | 1.09 | 1.05 | 1.06 | 1.02
CCCSc1nc(NC2CC2c2ccc(F)c(F)c2)c2nnn(C3CC(OCCO)C(O)C3O)c2n1 (stereo not drawn) [Ticagrelor] | 0.995 | 0.968 | 0.984 | 0.975 | 0.922 | 0.975
CC(C)(C)NC[C@@H](O)COc1nsnc1N1CCOCC1.O=C(O)/C=C\C(=O)O [Timolol Maleate] | 1.02 | 1.06 | 1.11 | 1.04 | 1.04 | 1.03
C[N+]1(C)[C@@H]2CC(OC(=O)C(O)(c3cccs3)c3cccs3)C[C@H]1C1OC12.O.[Br-] (stereo partly drawn) [Tiotropium Bromide hydrate] | 1.02 | 1.04 | 1.12 | 1.03 | 1.05 | 1.05
Cl.Clc1ccc2nsnc2c1NC1=NCCN1 [Tizanidine HCl] | 1 | 1.01 | 1.07 | 1.02 | 1.02 | 1.02
[Cl-].[H+].c1ccc(CC2=NCCN2)cc1 [Tolazoline HCl] | 1.02 | 1.1 | 1.1 | 1.05 | 1.06 | 1.04
Cc1ccc(O)c([C@H](CCN(C(C)C)C(C)C)c2ccccc2)c1.O=C(O)[C@H](O)[C@@H](O)C(=O)O [Tolterodine tartrate] | 0.972 | 1.06 | 1.12 | 1.04 | 1.04 | 1.03
Cc1ccccc1C(=O)Nc1ccc(C(=O)N2CCCC(O)c3cc(Cl)ccc32)c(C)c1 (stereo not drawn) [Tolvaptan] | 1.02 | 1.03 | 1.03 | 1.02 | 1 | 1.01
CC1(C)O[C@@H]2[C@@H](CO[C@@]3(COS(N)(=O)=O)OC(C)(C)O[C@@H]23)O1 [Topiramate] | 1.02 | 1.04 | 1.05 | 1.05 | 1.02 | 1.03
CN(C)CCOc1ccc(/C(=C(/CCCl)c2ccccc2)c2ccccc2)cc1.O=C(O)CC(O)(CC(=O)O)C(=O)O [Toremifene Citrate] | 0.98 | 0.977 | 0.945 | 0.908 | 0.893 | 0.941
CCC(COC(=O)c1cc(OC)c(OC)c(OC)c1)(c1ccccc1)N(C)C (stereo not drawn) [Trimebutine] | 1.03 | 1 | 0.977 | 0.984 | 0.981 | 0.972
CCN(Cc1ccncc1)C(=O)C(CO)c1ccccc1 (stereo not drawn) [Tropicamide] | 1.01 | 1.07 | 1.09 | 1.01 | 1.05 | 1.02
CN1[C@@H]2CC[C@H]1CC(OC(=O)C1C=Nc3ccccc31)C2.[Cl-].[H+] (stereo partly drawn) [Tropisetron] | 0.976 | 1.06 | 1.09 | 1.02 | 1.02 | 1.03
O=C(O[C@H]1C[C@H]2CC[C@@H](C1)[N+]21CCCC1)C(O)(c1ccccc1)c1ccccc1.[Cl-] [Trospium chloride] | 1 | 1.09 | 1.11 | 1.06 | 1.06 | 1.04
COc1ccccc1N1CCN(CCCNc2cc(=O)n(C)c(=O)n2C)CC1.[Cl-].[H+] [Urapidil HCl] | 1.04 | 1.09 | 1.1 | 1.04 | 1.03 | 1.02

SMILES | area under growth-rate inhibition curve [1] | area under growth-rate inhibition curve [2] | area under growth-rate inhibition curve [3] | area under growth-rate inhibition curve [4] | area under growth-rate inhibition curve [5] | area under growth-rate inhibition curve [6]
COc1ccc(C(CN(C)C)C2(O)CCCCC2)cc1 (stereo not drawn) [Venlafaxine] | 0.972 | 1.01 | 0.974 | 0.994 | 0.982 | 0.983
CS(=O)(=O)c1ccc(C(=O)Nc2ccc(Cl)c(-c3ccccn3)c2)c(Cl)c1 [Vismodegib (GDC-0449)] | 1.03 | 1.03 | 1.08 | 0.997 | 1.03 | 1.03
CCOC(=O)NC1CCC2C(C1)CC1C(=O)OC(C)C1C2C=Cc1ccc(-c2cccc(F)c2)cn1 (stereo not drawn) [Vorapaxar] | 0.944 | 0.983 | 1.04 | 0.966 | 0.947 | 1.01
c1ccc(NCc2ccc(CNc3ccccn3)cc2)nc1 [WZ811] | 1.01 | 1.04 | 1.08 | 1.04 | 1.02 | 1.02
Cc1cccc(C)c1NC1=NCCCS1.[Cl-].[H+] [Xylazine HCl] | 1.01 | 1.07 | 1.12 | 1.04 | 1.04 | 1.02
COc1nc(C)cnc1NS(=O)(=O)c1cccnc1-c1ccc(-c2nnco2)cc1 [Zibotentan (ZD4054)] | 0.958 | 1.04 | 1.07 | 1.01 | 1.02 | 1.03
CC(c1cc2ccccc2s1)N(O)C(N)=O (stereo not drawn) [Zileuton] | 1.04 | 1.05 | 1.07 | 1.05 | 1.04 | 1.04
O=C1Cc2cc(CCN3CCN(c4nsc5ccccc45)CC3)c(Cl)cc2N1.[Cl-].[H+] [Ziprasidone hydrochloride] | 1 | 1.05 | 1.06 | 1.03 | 0.993 | 1.03
CN(C)CCc1c[nH]c2ccc(C[C@H]3COC(=O)N3)cc12 [Zolmitriptan] | 1.03 | 1.07 | 1.09 | 1.05 | 1.06 | 1.06
CN(C)CCOC(c1ccc(Cl)cc1)c1ccccn1 (stereo not drawn) [carbinoxamine] | 1.03 | 1.06 | 1.04 | 1.04 | 0.999 | 1.04
CN1CC(C(=O)NC2(C)OC3(O)C4CCCN4C(=O)C(Cc4ccccc4)N3C2=O)C=C2c3cccc4[nH]cc(c34)CC21 (stereo not drawn) [ergotamine] | 1.02 | 1.06 | 1.03 | 1 | 1.01 | 1.03
Nc1cc(-c2ccncc2)c[nH]c1=O [inamrinone] | 1.03 | 1.05 | 1.03 | 1.06 | 0.994 | 1.04
CC(C)C1NC(=O)C(CCCCN)NC(=O)C(Cc2c[nH]c3ccccc23)NC(=O)C(Cc2ccc(O)cc2)NC(=O)C(NC(=O)C(N)Cc2ccc3ccccc3c2)CSSCC(C(=O)NC(C(N)=O)C(C)O)NC1=O (stereo not drawn) [lanreotide] | 1.01 | 1.01 | 1 | 1.02 | 1 | 0.986
Nc1cccc2c1CN(C1CCC(=O)NC1=O)C2=O (stereo not drawn) [lenalidomide] | 1.02 | 1.06 | 1.03 | 1.04 | 1.01 | 1.04
CCOC(=O)C1(c2ccccc2)CCN(C)CC1 [meperidine] | 1.02 | 1.06 | 1.04 | 1.04 | 0.992 | 1.04
COc1ccc(OC)c(C(O)C(C)N)c1 (stereo not drawn) [methoxamine] | 1.05 | 1.04 | 1.07 | 1.05 | 1.01 | 1.05
CCc1c(C)[nH]c2c1C(=O)C(CN1CCOCC1)CC2 (stereo not drawn) [molindone] | 1.03 | 1.05 | 1.04 | 1.06 | 1.01 | 1.05
CCN(CC)CCOC(=O)c1ccc(N)cc1.[Cl-].[H+] [procaine] | 1.01 | 1.07 | 1.05 | 1.03 | 1.02 | 1.03
Cc1ccc(/C(=C\CN2CCCC2)c2ccccn2)cc1.Cl [trans-Triprolidine hydrochloride] | 1.03 | 1.05 | 1.05 | 1.03 | 1.03 | 1.03
